Converted amounts (≈) assume the structure as drawn. Where two headings read alike, the source gives them in different places.
How the values were obtained:
rats = test: Penile erection test using rats; type: in vivo, rat; details: oral single dose 10 mg/kg in 0.5% methyl cellulose, observed for 2 hours
[1] = biological target: T1, Phosphodiesterase-5 enzyme (PDE 5) (Homo sapiens, UniProt O76074); test: Test for phosphodiesterase-5 (PDE 5) activity; type: biochemical; details: PDE 5 fraction from human corpus cavernosal tissues
T1 construct: separated by HPLC (Mono Q anion exchange column) with concentration gradient of 0-500 mM NaCl to elute PDE isozymes; from tissue; host or cells: human corpus cavernosal tissue

[2] = biological target: T2, Phosphodiesterase-3 enzyme (PDE 3) (Oryctolagus cuniculus, UniProt G1ST54); test: Test for phosphodiesterase-3 (PDE 3) activity; type: biochemical; details: PDE 3 fraction from platelets of a rabbit
T2 construct: The supernatant was separated by DEAE-cellulose column chromatography (Whatman DE52 bead); from tissue; host or cells: rabbit platelets
T2 sequence (G1ST54 1-1128): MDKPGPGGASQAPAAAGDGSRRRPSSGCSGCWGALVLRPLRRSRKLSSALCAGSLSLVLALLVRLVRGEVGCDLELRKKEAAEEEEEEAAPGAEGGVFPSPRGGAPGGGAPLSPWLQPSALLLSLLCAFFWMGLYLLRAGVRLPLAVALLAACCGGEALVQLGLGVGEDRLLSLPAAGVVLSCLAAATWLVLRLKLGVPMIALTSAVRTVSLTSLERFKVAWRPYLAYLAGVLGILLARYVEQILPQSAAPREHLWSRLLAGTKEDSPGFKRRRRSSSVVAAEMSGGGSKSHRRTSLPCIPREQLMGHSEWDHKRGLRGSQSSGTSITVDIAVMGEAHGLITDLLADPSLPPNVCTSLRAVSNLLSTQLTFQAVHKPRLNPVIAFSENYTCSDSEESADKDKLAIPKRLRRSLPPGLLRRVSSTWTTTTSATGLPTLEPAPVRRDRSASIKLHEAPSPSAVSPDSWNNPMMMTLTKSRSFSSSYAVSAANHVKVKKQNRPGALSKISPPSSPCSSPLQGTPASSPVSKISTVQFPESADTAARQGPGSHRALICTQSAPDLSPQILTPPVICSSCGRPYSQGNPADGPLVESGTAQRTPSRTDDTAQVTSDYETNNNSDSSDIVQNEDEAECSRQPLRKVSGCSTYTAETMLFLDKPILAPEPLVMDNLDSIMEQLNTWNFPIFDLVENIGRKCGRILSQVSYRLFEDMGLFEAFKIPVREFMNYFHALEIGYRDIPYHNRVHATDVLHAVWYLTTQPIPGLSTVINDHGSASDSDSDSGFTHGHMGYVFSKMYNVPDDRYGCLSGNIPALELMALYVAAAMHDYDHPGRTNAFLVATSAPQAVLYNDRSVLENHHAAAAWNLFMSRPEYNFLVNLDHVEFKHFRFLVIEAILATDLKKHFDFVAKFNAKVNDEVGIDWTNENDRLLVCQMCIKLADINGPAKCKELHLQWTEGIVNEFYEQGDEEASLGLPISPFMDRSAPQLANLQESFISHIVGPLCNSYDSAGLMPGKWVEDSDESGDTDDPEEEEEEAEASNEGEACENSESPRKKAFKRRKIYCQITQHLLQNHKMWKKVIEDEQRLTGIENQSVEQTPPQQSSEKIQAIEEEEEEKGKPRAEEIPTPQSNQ
Procedure: Phosphodiesterase-3 enzyme (PDE 3) was separated from platelets of a rabbit. About 60 ml of blood was collected from a puncture of the abdominal artery of a rabbit in heparinized syringes. Platelet-rich plasma was harvested by centrifugation for 5 min at 450×g and further centrifuged for 15 min at 1,200×g to precipitate the platelets. The platelets were resuspended in homogenizing buffer (50 mM Tris-HCl, 1 mM MgCl2, pH 7.4), homogenized at 4° C. and ultrasonicated (30 sec/ml). The homogenized solution was centrifuged (105,000×g) for 1 hr at 4° C. to obtain the supernatant in which PDE was dissolved. The supernatant was separated by DEAE-cellulose column chromatography (Whatman DE52 bead) by using eluent (50 mM Tris-HCl, 3.75mM2-mercaptoethanol, pH 6.0) with concentration gradient of 0-1 M sodium acetate to elute PDE isozymes. The PDE activity was measured on the each column fraction by the following process to separate PDE 3 fraction and the inhibition for PDE 3 of the compounds of formula 1 was measured by using the fraction.
To 1.5 ml tube containing 100 ul of reaction mixture (15 mM Tris-HCl, 5 mM MgCl2, 0.5 mg/ml BSA, pH 7.4) were added appropriate amount of PDE 3 fraction and PDE inhibitor and the solution was mixed well. After [^3H]-cAMP or [^3H]-cGMP (500 nM, 2 uCi/ml) was added, the mixture was reacted in incubator of 30° C. for about 1 hour and the reaction was quenched by putting the tube into boiling water for about 45 seconds to 2 min. The tube was chilled in ice bath for about 5 min. To this tube was added snake venom (1 mg/ml, 100 ul) or 5′-nucleotidase (0.1 unit/tube) and the mixture was reacted in incubator of 37° C. for 10 min and chilled in ice bath. 3 times volume of methanol to the resin was added to the anion exchange resin (Bio-Rad resin, AG1-X2, 200-400 mesh) which had been already washed with 0.5 N HCl, H2O, 0.5 N NaOH, H2O, 0.5 N HCl and H2O in order and adjusted to pH 5. Then 1 ml of the pretreated resin was added to the each tube with vortexing. The mixture was left at 4° C. for 15 min with occasional vortexing and centrifuged (10,000 rpm) for about 5 min to sediment the resin. The supernatant (700 ul) was transferred to a liquid scintillation vial, and mixed with 10 ml of scintillation cocktail. After stabilizing the mixture by leaving it overnight, the radioactivity of the tube was measured by β-counter.

[3] = Acute oral toxicity test in rats; details: SD, rat, in vivo, 1 g/kg; rats, oral single dose; read-out: lethal dose (LD50) of oral administration
[4] = Solubility in buffer solution in pH=2&5; type: physicochemical; details: 20 °C, thermodynamic from solid
Procedure: According to that defined in the Korea Pharmacopoeia, citrate-HCl buffer (pH 2) and citrate-NaOH buffer (pH 5) solutions were added to the powdered compounds of formula 1, respectively. After subsequent severe shaking for 30 sec every 5 min in […] for 30 min, the level of compounds in the filtrate was measured by high performance liquid chromatography.

[5] = Metabolism in rat liver (9,000xg supernatant fraction with NADPH); type: in vitro ADME; details: 10 ug/ml, 37° C., 1 hr, rat liver 9,000xg supernatant with NADPH generating solution
Procedure: In order to evaluate the extent of metabolism of the compounds of formula 1, the metabolism in rat liver was studied as below similar to the reported method (C. L. Litterist, E. G. Mimnaugh, R. I. Reagan and T. G. Gram., Drug. Metabol. Disposit., 1975, 3, 259-265). In short, the disappearance of compounds after incubation in 9, 000×g supernatant fraction of rat liver homogenate in the presence of NADPH (reduced nicotinamide adenine dinucleotide phosphate) was evaluated.
First, Sprague-Dawley rat (Korea Experiment Animals, SPF) liver was isolated after perfusion through portal vein with 0.1 M phosphate buffer of pH 7.0 using tissue homogenizer at 4° C. After centrifugation at 9,000×g for 20 min, the supernatants were collected.
The compound stock solution was spiked (10 ug/ml) into each of the eppendorf tubes containing 1 ml of the mixed solution composing 1 volume of supernatants and 2 volumes of generating solution. The generating solution contains 1 mM NADP, 10 mM glucose-6-phosphate, 50 mM nicotinamide and 5 MM MgCl2 in 0.1 M phosphate buffer of pH 7.0. After vortex-mixing, each test tube was incubated in a water bath kept at 37° C. After 1 hr, was added acetonitrile to the reaction mixture and centrifuged. 100 ul of aliquot of the supernatant was sampled from each test tube for measuring the remnants by high performance liquid chromatography.

[6] = citrate-HCl buffer, pH 2, aqueous buffer, citrate-HCl buffer (pH 2), read-out: solubility pH 2
[7] = citrate-NaOH buffer, pH 5, aqueous buffer, citrate-NaOH buffer (pH 5), read-out: solubility pH 5

Structure (SMILES) | PEI (penile erection index) (rats) | genital grooming (number of genital groomings) (rats) | IC50 [1] [nM] | IC50 [2] [µM] | LD50 [3] [mg/kg] | solubility at 30 min [4, 6] [µg/mL] | solubility at 30 min [4, 7] [µg/mL] | remnants (%) [5] [%]
CCCOc1ccc(S(=O)(=O)Nc2ccncc2)cc1-c1nc2c(CCC)nn(C)c2c(=O)[nH]1 [Example 35, 5-[2-propyloxy-5-(4-pyridylamidosulfonyl)phenyl]-1-methyl-3-propyl-1,6-dihydro-7H-pyrazolo(4,3-d)pyrimidin-7-one] | 200.0 ± 0.0 | 2.0 ± 0.0 | 0.935 | > 207 | > 1000 | 11 (≈ 22.8 µM) | 1 (≈ 2.07 µM) | 90.6
CCOc1ccc(S(=O)(=O)Nc2ccncc2)cc1-c1nc2c(CC(C)C)nn(C)c2c(=O)[nH]1 [Example 37, 5-[2-ethoxy-5-(4-pyridylamidosulfonyl)phenyl]-1-methyl-3-isobutyl-1,6-dihydro-7H-pyrazolo(4,3-d)pyrimidin-7-one] | 166.7 ± 57.7 | 1.3 ± 0.6 | 0.897 | – | > 1000 | 99 (≈ 205 µM) | 7 (≈ 14.5 µM) | 94.8
CCCOc1ccc(S(=O)(=O)NCc2ccncc2)cc1-c1nc2c(CCC)nn(C)c2c(=O)[nH]1 [Example 44, 5-[2-propyloxy-5-(4-pyridylmethylamidosulfonyl)phenyl]-1-methyl-3-propyl-1,6-dihydro-7H-pyrazolo(4,3-d)pyrimidin-7-one] | 166.7 ± 115.5 | 1.3 ± 0.6 | 0.328 | 12.6 | > 1000 | 373 (≈ 751 µM) | 1 (≈ 2.01 µM) | 49.8
CCOc1ccc(S(=O)(=O)NCc2ccncc2)cc1-c1nc2c(CC(C)C)nn(C)c2c(=O)[nH]1 [Example 46, 5-[2-ethoxy-5-(4-pyridylmethylamidosulfonyl)phenyl]-1-methyl-3-isobutyl-1,6-dihydro-7H-pyrazolo (4,3-d)pyrimidin-7-one] | 200.0 ± 173.2 | 1.3 ± 0.6 | 1.2 | > 201 | > 1000 | 183 (≈ 369 µM) | 0.4 (≈ 0.805 µM) | 75.9
CCOc1ccc(S(=O)(=O)NCc2cccnc2)cc1-c1nc2c(CC(C)C)nn(C)c2c(=O)[nH]1 [Example 48, 5-[2-ethoxy-5-(3-pyridylmethylamidosulfonyl)phenyl]-1-methyl-3-isobutyl-1,6-dihydro-7H-pyrazolo(4,3-d)pyrimidin-7-one] | 166.7 ± 57.7 | 1.3 ± 0.6 | 0.89 | 33.6 | > 1000 | 114 (≈ 230 µM) | 0.3 (≈ 0.604 µM) | 66.0
CCCOc1ccc(S(=O)(=O)NCc2cccnc2)cc1-c1nc2c(CCC)nn(C)c2c(=O)[nH]1 [Example 49, 5-[2-propyloxy-5-(3-pyridylmethylamidosulfonyl)phenyl]-1-methyl-3-propyl-1,6-dihydro-7H-pyrazolo(4,3-d)pyrimidin-7-one] | 200.0 ± 173.2 | 1.3 ± 0.6 | 0.3 | 25.2 | > 1000 | 43 (≈ 86.6 µM) | – | 71.3
CCOc1ccc(S(=O)(=O)NC2CCN(C)C2)cc1-c1nc2c(CC(C)C)nn(C)c2c(=O)[nH]1 (stereo not shown) [Example 54, 5-[2-ethoxy-5-(1-methyl-3-pyrrolidinylamidosulfonyl)phenyl]-1-methyl-3-isobutyl-1,6-dihydro-7H-pyrazolo(4,3-d)pyrimidin-7-one] | 233.3 ± 230.9 | 2.7 ± 2.9 | 39.1 | > 205 | > 1000 | – | – | –
CCCOc1ccc(S(=O)(=O)NCC2CCN(CC)C2)cc1-c1nc2c(CCC)nn(C)c2c(=O)[nH]1 (stereo not shown) [Example 64, 5-[2-propyloxy-5-(1-ethyl-3-pyrrolidinylmethylamidosulfonyl)phenyl]-1-methyl-3-propyl-1,6-dihydro-7H-pyrazolo(4,3-d)pyrimidin-7-one] | 175.0 ± 95.7 | 2.8 ± 0.5 | 30.7 | 134 | > 1000 | – | – | –
CCOc1ccc(S(=O)(=O)NCC2CCN(CC)C2)cc1-c1nc2c(CC(C)C)nn(C)c2c(=O)[nH]1 (stereo not shown) [Example 66, 5-[2-ethoxy-5-(1-ethyl-3-pyrrolidinylmethylamidosulfonyl)phenyl]-1-methyl-3-isobutyl-1,6-dihydro-7H-pyrazolo(4,3-d)pyrimidin-7-one] | 175.0 ± 95.7 | 2.8 ± 0.5 | 35.8 | 90.4 | > 1000 | – | – | –
